{
  "source": "patent US8466155B2",
  "about": "“Pyrimidines” (Boehringer Ingelheim International GmbH, priority 2009, dated 2013)",
  "biological_target": "T1, PTK2 (Homo sapiens, UniProt Q05397)",
  "T1 construct": "purchased Invitrogen PV3832",
  "T1 sequence (Q05397 whole entry)": "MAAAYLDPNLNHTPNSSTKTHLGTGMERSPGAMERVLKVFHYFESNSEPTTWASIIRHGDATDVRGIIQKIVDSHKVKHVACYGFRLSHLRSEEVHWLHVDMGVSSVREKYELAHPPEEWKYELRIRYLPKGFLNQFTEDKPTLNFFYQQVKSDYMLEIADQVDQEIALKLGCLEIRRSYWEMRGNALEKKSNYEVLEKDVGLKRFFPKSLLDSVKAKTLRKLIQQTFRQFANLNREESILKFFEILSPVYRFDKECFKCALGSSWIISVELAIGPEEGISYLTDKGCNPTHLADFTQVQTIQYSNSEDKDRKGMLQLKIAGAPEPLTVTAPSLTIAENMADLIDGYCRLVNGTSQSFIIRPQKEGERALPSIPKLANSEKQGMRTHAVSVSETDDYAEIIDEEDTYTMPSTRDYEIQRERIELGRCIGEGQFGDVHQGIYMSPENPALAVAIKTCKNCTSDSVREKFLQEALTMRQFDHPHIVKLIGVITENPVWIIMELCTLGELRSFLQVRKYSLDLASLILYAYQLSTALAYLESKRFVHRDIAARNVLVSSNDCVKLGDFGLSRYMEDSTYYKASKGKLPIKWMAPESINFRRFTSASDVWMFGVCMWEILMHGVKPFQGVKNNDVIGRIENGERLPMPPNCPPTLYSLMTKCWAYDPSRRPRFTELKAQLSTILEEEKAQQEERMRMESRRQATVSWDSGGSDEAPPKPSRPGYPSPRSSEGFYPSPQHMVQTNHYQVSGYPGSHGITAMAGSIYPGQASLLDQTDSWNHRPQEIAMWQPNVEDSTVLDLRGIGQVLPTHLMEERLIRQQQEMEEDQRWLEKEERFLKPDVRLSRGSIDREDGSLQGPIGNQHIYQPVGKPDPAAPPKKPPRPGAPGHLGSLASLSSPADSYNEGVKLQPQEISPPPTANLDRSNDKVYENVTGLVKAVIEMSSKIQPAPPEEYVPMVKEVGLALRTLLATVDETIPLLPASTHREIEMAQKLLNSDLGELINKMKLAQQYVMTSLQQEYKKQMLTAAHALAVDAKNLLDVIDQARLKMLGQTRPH",
  "assay": "PTK2 enzyme test, Assay 2 (DELFIA, PT66 antibody)",
  "type": "biochemical",
  "conditions": "values marked (*), read-out: PTK2 1 h IC50",
  "from_the_text": "This test uses active PTK2 enzyme (Invitrogen Code PV3832) and poly-Glu-Tyr (4:1, Sigma P-0275) as the kinase substrate. The kinase activity is detected by means of the phosphorylation of the substrate in a DELFIA™ assay. The phosphorylated substrate is detected with the europium-labelled phosphotyrosine antibody PT66 (Perkin Elmer, No.: AD0040).\nIn order to determine concentration-activity curves with PTK2-inhibitors the compounds are serially diluted first of all in 100% DMSO and then in kinase dilution buffer (20 mM TRIS/HCl pH 7.5, 0.1 mM EDTA, 0.1 mM EGTA, 0.286 mM sodium orthovanadate, 10% glycerol with the addition of freshly prepared BSA (fraction V, 1 mg/mL) and DTT (1 mM)) and 10 μL of each dilution are dispensed per well in a 96-well microtitre plate (clear U-shaped base plate, Greiner No. 650101) (the inhibitors are tested in duplicates) and mixed with 10 μL/well of PTK2 kinase (0.01 μg/well). PTK2 kinase is diluted accordingly beforehand with kinase dilution buffer. […]\nThe time-delayed europium fluorescence is then measured in a microtitre plate reader (VICTOR^3, Perkin Elmer). […]\nThe IC50 values are determined from concentration-activity analyses by iterative calculation using a sigmoid curve analysis algorithm (FIFTY, based on GraphPAD Prism Version 3.03) with a variable Hill coefficient.",
  "note": "pIC50: −log10 of the molar value.",
  "data": [
    {"smiles": "COc1ccc(C(=O)NC2CCN(C)CC2)cc1Nc1ncc(C(F)(F)F)c(O[C@@H]2Cc3ccccc3[C@H]2N(C)S(C)(=O)=O)n1", "note": "[Example 79, 3-{4-[(1R,2R)-1-(methanesulphonyl-methyl-amino)-indan-2-yloxy]-5-trifluoromethyl-pyrimidin-2-ylamino}-4-methoxy-N-(1-methyl-piperidin-4-yl)-benzamide]", "values": [
      {"measurement": "pIC50", "result": 9.40}
    ]},
    {"smiles": "COc1cc(N2CCN(C(C)(C)C)CC2)ccc1Nc1ncc(C(F)(F)F)c(O[C@@H]2Cc3ccccc3[C@H]2N(C)S(C)(=O)=O)n1", "note": "[Example 90, N-((1R,2R)-2-{2-[4-(4-tert-butyl-piperazin-1-yl)-2-methoxy-phenylamino]-5-trifluoromethyl-pyrimidin-4-yloxy}-indan-1-yl)-N-methyl-methanesulphonamide]", "values": [
      {"measurement": "pIC50", "result": 9.07}
    ]}
  ]
}
